Entries after “also recorded” stand apart in the source; their conditions may differ.
Experiments:
[1] = test system: peptide-pulsed A24LCL cells or T2 cells; assay: In vitro CTL induction by peptide-loaded dendritic cells (summary statements); type: cell-based, human
From the text: Confirmation of CTL inducibility can be accomplished by inducing antigen-presenting cells carrying human MHC antigens (for example, B-lymphocytes, macrophages, and dendritic cells), or more specifically dendritic cells derived from human peripheral blood mononuclear leukocytes, and after stimulation with the peptides, mixing with CD8-positive cells, and then measuring the IFN-gamma produced and released by CTL against the target cells. As the reaction system, transgenic animals that have been produced to express a human HLA antigen (for example, those described in BenMohamed L, Krishnan R, Longmate J, Auge C, Low L, Primus J, Diamond D J, Hum Immunol 61(8): 764-79, 2000 August, Related Articles, Books, Linkout Induction of CTL response by a minimal epitope vaccine in HLA A*0201/DR1 transgenic mice: dependence on HLA class II restricted T(H) response) can be used. For example, the target cells can be radiolabeled with ^51Cr and such, and cytotoxic activity can be calculated from radioactivity released from the target cells. Alternatively, it can be examined by measuring IFN-gamma produced and released by CTL in the presence of antigen-presenting cells that carry immobilized peptides, and visualizing the inhibition zone on the media using anti-IFN-gamma monoclonal antibodies.
(§1) Monocyte-derived dendritic cells (DCs) were used as antigen-presenting cells (APCs) to induce CTL responses against peptides presented on HLA. DCs were generated in vitro as described elsewhere (Horiguchi S. et al. Cancer Res. 59:2950-6). Specifically, peripheral blood mononuclear cells (PBMCs) isolated from normal volunteer (HLA-A*2402 and/or HLA-A*0201) with Ficoll-Plaque (Pharmacia) solution were separated by adherence to plastic tissue culture dish (Becton Dickinson) so as to enrich them for the monocyte fraction. The monocyte-enriched population was cultured in the presence of 1000 U/ml of GM-CSF (R&D System) and 1000 U/ml of IL-4 (R&D System) in AIM-V medium (Invitrogen) containing 2% heat-inactivated autologous serum (AS). After 7 days in the culture, the cytokine-generated DCs were pulsed with 20 mcg/ml of the synthesized peptides in the presence of 3 mcg/ml of beta2-microglobulin for 4 hrs at 20 degrees C. in AIM-V medium. These peptide-pulsed DCs were then inactivated with mitomycin C (MMC) (30 mcg/ml for 30 mins) and mixed at a 1:20 ratio with autologous CD8+ T cells, obtained by positive selection with CD8 Positive Isolation Kit (Dynal). These cultures were set up in 48-well plates (Corning); each well contained 1.5×10^4 peptide-pulsed DCs, 3×10^5 CD8+ T cells and 10 ng/ml of IL-7 (R&D System) in 0.5 ml of AIM-V/2% AS. Three days later, these cultures were supplemented with IL-2 (CHIRON) to a final concentration of 20 IU/ml. On day 7 and 14, the T cells were further restimulated with the peptide-pulsed autologous DCs. The DCs were prepared each time through the same procedure described above. CTL activity was tested against peptide-pulsed A24LCL cells or T2 cells after the 3rd round of peptide stimulation on day 21.
(§2) To examine the specific CTL activity, IFN-gamma ELISPOT assay and IFN-gamma ELISA were performed. Briefly, peptide-pulsed A24-LCL, T2 cell (1×10^4/well) or the cells endogenously expressing Foxp3 and HLA molecule was prepared as a stimulator cells. Cultured CTL lines in 48 wells were used as a responder cells. IFN-gamma ELISPOT assay and IFN-gamma ELISA were performed under manufacture procedure.

BALB/c mice = assay: Immunogenicity of epitope peptides in BALB/c mice (IFN-gamma ELISPOT on splenocytes); type: in vivo
Procedure: IFA-conjugated peptide or IFA only were injected s.c. into BALB/c mice on day 0 and 7. On day 14, splenocytes of vaccinated mice were harvested and used as responder cells. 1×10^4 RLmale1 cells pulsed corresponding peptide (solid square), or no peptide (open square) were used as stimulator cells for IFN-gamma ELISPOT assay. Vaccination using Foxp3-252_h (A) and Foxp3-252_m (B) were performed into five mice (M1-M5) and IFA without any peptide injection were performed into three mice (N1-N3) as control in each assay.
For priming the peptide-specific CTLs, immunization was given using 100 mcl vaccine mixture, which contains 50 mcl HLA-A24 restricted peptide and 50 mcl IFA per mouse. The vaccine was injected s.c. into the right flank of mice for the first immunization on day 0 and in the left flank for the second on the day 7. On day 14, splenocytes from vaccinated mice were used as the responder cells, and RLmale1 cells pulsed with or without peptides were used as the stimulator cells for IFN-gamma ELISPOT assay.
To evaluate the immunogenicity of Foxp3-9-252 peptide for BALB/c mice, immunization with human Foxp3-9-252 peptide (Foxp3-252_h; KLSAMQAHL)(SEQ ID NO: 17) and mouse Foxp3-9-252 peptide (Foxp3-252_m; KLGAMQAHL) (SEQ ID NO: 89) were performed, respectively. After second injection of peptide, peptide specific CTL activity was determined by IFN-gamma ELISPOT assay (FIG. 5).

peptide-pulsed T2 cells = assay: IFN-gamma ELISPOT on CTLs induced with HLA-A0201 restricted Foxp3 peptides; type: cell-based, human; settings: FIG. 2A/2B/2C
From the text: as §1, §2
Resulting CTLs showing detectable specific CTL activity were shown in FIG. 2A, FIG. 2B and FIG. 2C when performed by IFN-gamma ELISPOT assay.

[2] = test system: 293T that transfected both Foxp3 and HLA-A24; assay: Specific CTL activity against target cells expressing Foxp3 and HLA-A24; type: cell-based, human
Procedure: as §2
The established CTL clone raised against these peptides were examined for their ability to recognize the target cells endogenously expressing Foxp3 and HLA-A*24 or 02. Specific CTL activity against 293T transfected both full length of Foxp3 gene and HLA-A*24 or 02 molecule, which is specific model for the target cells endogenously express Foxp3 and HLA-A*24 or 02, was tested using the CTL lines raised by Foxp3-A02-9-390 (SEQ ID NO: 15) and Foxp3-A02-9-252 (SEQ ID NO: 17) as effector cells. […] Furthermore, these peptides were epitope peptides, which can utilize vaccine targeting Foxp3 expressed T-regs.

Sequence: KLSAMQAHL (peptide vaccine) [SEQ ID NO 17]
- specific CTL activity ([1]; against peptide pulsed target cells): significant and specific CTL activity
- establishment of CTLs ([1]; in vitro stimulation of T-cells by DCs loaded with peptide): CTLs were successfully established
- mice with peptide specific CTL response (BALB/c mice; IFA-conjugated peptide s.c. day 0 and 7, splenocytes day 14, RLmale1 stimulator cells, FIG. 5): three of five
- induction of epitope specific CTLs in vivo (BALB/c mice; vaccination of BALB/c mice, discussion, listed as hFoxp3-252): could induce epitope specific CTLs in vivo; also recorded: superior to mFoxp3-252 peptide
- IFN-gamma production of CTLs stimulated with peptide, compared with the control (peptide-pulsed T2 cells): potent IFN-gamma production
- specific CTL activity of CTL lines raised by peptide ([2]; against 293T transfected with both Foxp3 and HLA-A24, FIG. 4C): high specific CTL activity
- specific CTL activity against controls ([2]; controls of FIG. 4C): did not show significant specific CTL activity

Reference: US8563516B2, “Foxp3 peptide vaccine” (OncoTherapy Science, Inc., priority 2007, dated 2013)
